In article PMC9232612, “A phase 1b randomised controlled trial of a glucagon-like peptide-1 and glucagon receptor dual agonist IBI362 (LY3305677) in Chinese patients with type 2 diabetes” (Nature Communications, 2022):

Columns and labels:
[1] = single dose range of 0.03-5 mg; earlier study, ref not given; cited from earlier work
Text: page 21: safety follow-up visit. The safety data of this patient was collected and included in the analysis. We made this clear in the Results (Lines 210-213). 6. For the tables that present treatment emergent adverse events (Table 2 and Supplementary Table 2), do the numbers in the table correspond to the number of events, or the number of patients who experienced at least one event? Response: Safety data in this study were presented as number of patients (percentage). We made this clear in the footnotes (Fig. 2 and S3) of relevant tables and apologized for the neglect. 7. For Supplementary T ...

[2] = test system: Chinese patients with T2D; test: Mixed-meal tolerance test (MTT) and fasting: total GLP-1; type: in vivo, human; conditions: week 12; patients receiving IBI362
Protocol: HbA1c (2200101, Bio-Rad, USA), blood glucose (05168791190, Roche Diagnostics, Germany), insulin (12017547122, Roche Diagnostics, Germany), C peptide (03184897190, Roche Diagnostics, Germany), total GLP-1 (GLP-1 [7–36] amide and its metabolite, GLP-1 [9–36] amide, 10-1278-01, Mercodia AB, Sweden) and OXM (AL-139, AnshLabs, USA) tests were performed according to the manufactures’ instruction manuals in a central laboratory (KingMed Diagnostics, Guangzhou, China). HbA1c was measured using a Bio-rad D-100 Haemoglobin Testing System (Bio-rad). Blood glucose was measured using a Roche Cobas c702 analyser (Roche Diagnostics). Insulin and C peptide were measured using a Roche […] analyser (Roche Diagnostics). GLP-1 and OXM were measured using a Tecan Infinite M Plex microplate reader (TECAN).
Standard non-compartmental pharmacokinetics methods were used to analyze IBI362 plasma concentration data using Pkanalix 2020R1 (Lixoft, Antony, France). Secondary efficacy outcomes included change from baseline to week 12 in HbA1c, fasting plasma glucose (FPG), fasting insulin levels, change from baseline to week 12 in post-mixed-meal tolerance test (post-MTT) glucose, insulin, C peptide, GLP-1 and OXM levels, as well as seven-point self-measured blood glucose (SMBG) profile. […]
3. […]
bag is added and mixed well. The time is counted from the first bite of eating. […]

SMILES: CC(C)C[C@H](NC(=O)[C@H](CC(C)C)NC(=O)[C@H](Cc1c[nH]c2ccccc12)NC(=O)[C@H](CCC(=O)O)NC(=O)[C@@H](NC(=O)[C@H](Cc1ccccc1)NC(=O)[C@H](CCC(=O)O)NC(=O)[C@H](CCCCNC(=O)COCCOCCNC(=O)COCCOCCNC(=O)CC[C@H](NC(=O)CCCCCCCCCCCCCCCCCCC(=O)O)C(=O)O)NC(=O)[C@H](C)NC(=O)[C@H](CCCCN)NC(=O)[C@H](CCCCN)NC(=O)[C@H](CCC(=O)O)NC(=O)[C@H](CC(=O)O)NC(=O)[C@H](CC(C)C)NC(=O)[C@H](Cc1ccc(O)cc1)NC(=O)[C@H](CCCCN)NC(=O)[C@H](CO)NC(=O)[C@H](Cc1ccc(O)cc1)NC(=O)[C@H](CC(=O)O)NC(=O)[C@H](CO)NC(=O)[C@@H](NC(=O)[C@H](Cc1ccccc1)NC(=O)[C@@H](NC(=O)CNC(=O)[C@H](CCC(N)=O)NC(=O)C(C)(C)NC(=O)[C@@H](N)Cc1c[nH]cn1)[C@@H](C)O)[C@@H](C)O)C(C)C)C(=O)N[C@@H](CCC(=O)O)C(=O)NCC(=O)NCC(=O)N1CCC[C@H]1C(=O)N[C@@H](CO)C(=O)N[C@@H](CO)C(=O)NCC(N)=O [IBI362]
- pharmacokinetic profile [1]: linear
- post-MTT GLP-1 excursion [2]: markedly suppressed
